Tested on: ATDC5 cells
Assay: Proliferation test of ATDC5 cells
Assay type: cell-based
Experimental: ATDC5 cells were cultured at a cell density of 5×10^5 cells/35 mm dish. As the culture solution, DMEM-Ham's F12 medium containing 5% FBS and 1% Pen/Strep was used. Adjustment was conducted to final concentrations of MPMBP of 10 μM (M10) and 100 μM (M100), clodronate of 10 μM (C10) and 100 μM (C100), zoledronate of 10 μM (Z10) and 100 μM (Z100) and a control (Vehicle), and the cells were cultured under the conditions of 5% CO2 at 37° C. The medium was changed every three days.

SMILES | number of cells (sixth day of culture, 10 μM) | number of cells (sixth day of culture, 100 μM) | number of cells (third day of culture, 10 μM) | number of cells (third day of culture, 100 μM)
O=P(O)(O)C(O)(Cn1ccnc1)P(=O)(O)O [zoledronate] | decreased significantly | decreased significantly | decreased | decreased
O=P(O)(O)C(Cl)(Cl)P(=O)(O)O [clodronate] |  |  | increased | increased

Source: patent US20250213597A1, “AGENT FOR INDUCING PROLIFERATION OR DIFFERENTIATION OF CHONDROCYTE” (TOHOKU UNIVERSITY, priority 2022, published 2025)
